Data: publication PMC4705544, “CPUY201112, a novel synthetic small-molecule compound and inhibitor of heat shock protein Hsp90, induces p53-mediated apoptosis in MCF-7 cells” (Scientific Reports, 2016)

Biological target: T1, Hsp90α (Homo sapiens, UniProt P07900)
T1 construct: gene HSP90AA1; full-length Hsp90
Test: BLI (ForteBio Octet Red […]); also FP competition with FITC-geldanamycin (IC50 […]) and HTRF ATPase inhibition
Assay type: binding

`CCOc1ncc2c(n1)CCN(C(=O)c1cc(C(C)C)c(O)cc1O)C2` [CPUY201112] was tested. Which Kd did it give?
Its Kd is 27 ± 5 nM.
